The source of these data is PMC6301270 (MedChemComm, 2018).

The experiment has as its system T.b. brucei (strain 427) bloodstream form parasites. The experiment in a line: T.b. brucei single concentration screen (10 μM). To be noted: Trypanosoma brucei, read-out: T.b.brucei % viability (10 µM).
As usually defined, the viability is a read-out of living cells in per cent, often relative to untreated cells. In the case of `CNCCC(Oc1ccc(C(F)(F)F)cc1)c1ccccc1` (stereo not shown) [Compound 33, CNCCC(Oc1ccc(cc1)C(F)(F)F)c2ccccc2], the viability at 10 µM amounted to 2.4%.

Take `CN1CCCC1CCO[C@](C)(c1ccccc1)c1ccc(Cl)cc1` (stereo partly shown) [Compound 62, ClC1=CC=C([C@@](C)(C2=CC=CC=C2)OCCC3N(C)CCC3)C=C1]: the viability at 10 µM amounted to 2%.

On to `COc1cccc(-n2nnnc2S(C)(=O)=O)c1` [Compound 63, COc1cccc(c1)n2nnnc2S(=O)(=O)C], for which the viability at 10 µM turned out to be 103%.

As for `CC(C)(C)c1cnc(NC(=O)c2ccccc2O)s1` [Compound 64, CC(C)(C)c1cnc(NC(=O)c2ccccc2O)s1], the viability at 10 µM is 77%.

Regarding `Nc1nc2cc(-c3cncc(Oc4ccc(F)cc4)c3)ccc2[nH]1` [Compound 65, Nc1nc2ccc(cc2[nH]1)c3cncc(Oc4ccc(F)cc4)c3], the viability at 10 µM was determined as 14%.

For the compound `O=C(Nc1ccc(N2CCNCC2)cc1)c1ccn2ncc(-c3cccc(Cl)c3)c2n1` [Compound 67, Clc1cccc(c1)c2cnn3ccc(nc23)C(=O)Nc4ccc(cc4)N5CCNCC5], the viability at 10 µM amounted to 1%.

As to `O=C(NCCc1ccccc1)c1cc(-c2cccnc2)cnc1NCC1CC1` [Compound 68, O=C(NCCc1ccccc1)c2cc(cnc2NCC3CC3)c4cccnc4], the viability at 10 µM turned out to be 79%.

Regarding `Cc1[nH]c2ccccc2c1C(c1cccs1)N1CCN(C)CC1` (stereo not shown) [Compound 69, CN1CCN(CC1)C(c2cccs2)c3c(C)[nH]c4ccccc34], the viability at 10 µM stood at 29%.

As for `O=S(=O)(c1ccc(Cl)cc1)N1CCN(C(=S)NCc2ccco2)CC1` [MMV000858, Clc1ccc(cc1)S(=O)(=O)N2CCN(CC2)C(=S)NCc3occc3], the viability at 10 µM stood at 97%.

Turning to `COc1cccc2c(C)nc(N=C(N)N)nc12` [MMV000907, COc1cccc2c(C)nc(N=C(N)N)nc12], the viability at 10 µM was found to be 79%.

In the case of `CCCS(=O)(=O)N1CCC(CO)(Cc2ccccc2C(F)(F)F)CC1` [MMV001059, CCCS(=O)(=O)N1CCC(CO)(Cc2ccccc2C(F)(F)F)CC1], the viability at 10 µM came to 87%.

For `COC(=O)C1=C(C)NC(C)=C(C(=O)OC(C)C)C1c1cccc2nonc12` (stereo not shown) [MMV001493, COC(=O)C1=C(C)NC(=C(C1c2cccc3nonc23)C(=O)OC(C)C)C], the viability at 10 µM came to 97%.

Regarding `CN1CCCN(C(c2ccccc2)c2ccc(Cl)cc2)CC1` (stereo not shown) [MMV004168, CN1CCCN(CC1)C(c2ccccc2)c3ccc(Cl)cc3], the viability at 10 µM turned out to be 55%.

Take `O=C1Nc2ccc(Br)cc2C12NCCc1c2[nH]c2ccccc12` (stereo not shown) [MMV006239, Brc1ccc2NC(=O)C3(NCCc4c3[nH]c5ccccc45)c2c1]: the viability at 10 µM was found to be 106%.

Consider `Cc1ccc2[nH]c3c(NCCN(C)C)ncnc3c2c1` [MMV006372, CN(C)CCNc1ncnc2c3cc(C)ccc3[nH]c12], for which the viability at 10 µM was determined as 86%.

With `COc1cc2ncnc(NC3CCN(Cc4ccccc4)CC3)c2cc1OC` [MMV006741, COc1cc2ncnc(NC3CCN(Cc4ccccc4)CC3)c2cc1OC], the viability at 10 µM came to 103%.

For `Cc1cc(Cl)c(S(=O)(=O)N2CCCC2)cc1OCC(=O)NC1CCCCC1` [MMV006833, Cc1cc(Cl)c(cc1OCC(=O)NC2CCCCC2)S(=O)(=O)N3CCCC3], the viability at 10 µM was 98%.

Regarding `Cc1cc(NC(=O)c2ccc(S(=O)(=O)N(Cc3ccccc3)C(C)C)cc2)no1` [MMV007133, CC(C)N(Cc1ccccc1)S(=O)(=O)c2ccc(cc2)C(=O)Nc3cc(C)on3], the viability at 10 µM was 98%.

Regarding `COc1cc(OC)cc(C(=O)NCC2Cc3cc(Cl)cc(-c4ccncc4)c3O2)c1` (stereo not shown) [MMV007471, COc1cc(OC)cc(c1)C(=O)NCC2Cc3cc(Cl)cc(c3O2)c4ccncc4], the viability at 10 µM is 74%.

Consider `Cc1cc(C)n(-c2ccc(NC(=O)C3CCN(Cc4cnc(C)s4)CC3)cc2)n1` [MMV007625, Cc1cc(C)n(n1)c2ccc(NC(=O)C3CCN(Cc4cnc(C)s4)CC3)cc2], for which the viability at 10 µM worked out at 65%.

Turning to `CCOc1ccc(-c2nc(NC(=O)CS(=O)(=O)c3ccccc3)sc2C)cc1` [MMV007638, CCOc1ccc(cc1)c2nc(NC(=O)CS(=O)(=O)c3ccccc3)sc2C], the viability at 10 µM is 73%.

For the compound `O=C(NC1CC1)c1ccc(CSCc2ccccc2Cl)o1` [MMV007803, Clc1ccccc1CSCc2oc(cc2)C(=O)NC3CC3], the viability at 10 µM is 101%.

With `Nc1ccc(C(=O)Nc2ccc(-c3nc4ccccc4o3)cc2)cc1` [MMV007920, Nc1ccc(cc1)C(=O)Nc2ccc(cc2)c3oc4ccccc4n3], the viability at 10 µM turned out to be 83%.

In the case of `COc1ccc(CN2CCOc3ccc(C(C)(O)CN(C)C)cc3C2)cc1C` (stereo not shown) [MMV008439, COc1ccc(CN2CCOc3ccc(cc3C2)C(C)(O)CN(C)C)cc1C], the viability at 10 µM amounted to 94%.

Consider `Cc1cc(C(=O)Nc2cnn(Cc3ccc(Cl)cc3Cl)c2)no1` [MMV009054, Cc1onc(c1)C(=O)Nc2cnn(Cc3ccc(Cl)cc3Cl)c2], for which the viability at 10 µM was found to be 89%.

For `O=C(C1CCN(c2nnnn2-c2ccccc2)CC1)N1CCc2ccccc2C1` [MMV009135, O=C(C1CCN(CC1)c2nnnn2c3ccccc3)N4CCc5ccccc5C4], the viability at 10 µM worked out at 94%.

Regarding `COc1ccc(-c2cnc3ccc(NCc4ccc(S(N)(=O)=O)cc4)nn23)cn1` [MMV010545, COc1ccc(cn1)c2cnc3ccc(NCc4ccc(cc4)S(=O)(=O)N)nn23], the viability at 10 µM amounted to 97%.

For the compound `c1csc(-c2cnc3sc(NCC4CCOCC4)nn23)c1` [MMV010764, C(Nc1nn2c(cnc2s1)c3cccs3)C4CCOCC4], the viability at 10 µM was found to be 94%.

As to `Cc1cc(Nc2ccc(C(F)(F)F)cc2)n2ccnc2n1` [MMV011229, CC1=NC2=NC=CN2C(NC3=CC=C(C(F)(F)F)C=C3)=C1], the viability at 10 µM came to 89%.

Take `COc1ccc(CCN2CCC(NCc3cccc(N(C)C)c3)CC2)cc1` [MMV011511, COc1ccc(CCN2CCC(CC2)NCc3cccc(c3)N(C)C)cc1]: the viability at 10 µM came to 66%.

Turning to `NCC(=O)N1CCn2c(nc(-c3ccccc3)c2Nc2ccc3c(c2)OCO3)C1` [MMV011691, NCC(=O)N1CCn2c(C1)nc(c2Nc3ccc4OCOc4c3)c5ccccc5], the viability at 10 µM amounted to 120%.

`FC(F)(F)c1cnc(Sc2nnc(-c3ccncc3)o2)c(Cl)c1` [MMV011765, FC(F)(F)c1cnc(Sc2oc(nn2)c3ccncc3)c(Cl)c1]: the viability at 10 µM stood at 85%.

On to `Cc1ccc(NC(=O)c2nc[nH]c2C(=O)Nc2nc3ccccc3[nH]2)c(C)c1` [MMV011903, Cc1ccc(NC(=O)c2nc[nH]c2C(=O)Nc3nc4ccccc4[nH]3)c(C)c1], for which the viability at 10 µM was found to be 10%.

On to `Cc1nc2ccccn2c1C(=O)NCc1ccc(Cl)cc1` [MMV012074, Cc1nc2ccccn2c1C(=O)NCc3ccc(Cl)cc3], for which the viability at 10 µM amounted to 102%.

`Cc1cc(Nc2ccncc2)n2nc(C)c(-c3ccccc3Cl)c2n1` [MMV016136, Cc1cc(Nc2ccncc2)n3nc(C)c(c4ccccc4Cl)c3n1]: the viability at 10 µM amounted to 113%.

Take `Cc1ccc(-c2cc(C(=O)Nc3cccnc3)c3cc(Br)ccc3n2)cc1` [MMV016838, Cc1ccc(cc1)-c1cc(c2cc(ccc2n1)Br)C(=O)Nc1cccnc1]: the viability at 10 µM was found to be 87%.

Turning to `Cc1cc(C)n2nc(C(=O)Nc3cc(C(F)(F)F)ccc3N3CCOCC3)nc2n1` [MMV019087, Cc1cc(C)n2nc(nc2n1)C(=O)Nc3cc(ccc3N4CCOCC4)C(F)(F)F], the viability at 10 µM was found to be 74%.

Take `COc1ccc(C2CC(c3cccs3)=NN2C(=O)c2ccco2)cc1OC` (stereo not shown) [MMV019234, COc1ccc(cc1OC)C2CC(=NN2C(=O)c3occc3)c4cccs4]: the viability at 10 µM came to 107%.

Regarding `CCC(NC(=O)c1ccccc1NC(=O)c1ccc(C)cc1)C(=O)OC` (stereo not shown) [MMV019551, CCC(NC(=O)c1ccccc1NC(=O)c2ccc(C)cc2)C(=O)OC], the viability at 10 µM is 97%.

With `CCN(CC)S(=O)(=O)c1ccc(Cl)c(C(=O)Nc2ccc3nc(C)sc3c2)c1` [MMV019721, CCN(CC)S(=O)(=O)c1ccc(Cl)c(c1)C(=O)Nc2ccc3nc(C)sc3c2], the viability at 10 µM stood at 62%.

`Cc1ccc(S(=O)(=O)N2CCN(C(=O)c3cc(-c4ccccc4)[nH]n3)CC2)cc1` [MMV019742, Cc1ccc(cc1)S(=O)(=O)N2CCN(CC2)C(=O)c3cc([nH]n3)c4ccccc4]: the viability at 10 µM is 96%.

With `CCOc1ccccc1C(=O)Nc1cccc(-c2nc3ncccn3c2C)c1` [MMV019790, CCOc1ccccc1C(=O)Nc2cccc(c2)c3nc4ncccn4c3C], the viability at 10 µM was 103%.

For the compound `Cc1ccc2cc(C3NC(=O)c4ccccc4N3)c(Cl)nc2c1` (stereo not shown) [MMV019807, Cc1ccc2cc(C3NC(=O)c4ccccc4N3)c(Cl)nc2c1], the viability at 10 µM was determined as 113%.

`O=C(Nc1ccnc(-c2cccnc2)n1)c1cc(C(F)(F)F)cc(C(F)(F)F)c1` [MMV019838, FC(F)(F)c1cc(cc(c1)C(F)(F)F)C(=O)Nc2ccnc(n2)c3cccnc3]: the viability at 10 µM came to 106%.

`Cc1nn(C)cc1C(C)Nc1nncc(-c2ccc(C(F)(F)F)cc2)n1` (stereo not shown) [MMV019993, CC(Nc1nncc(n1)c2ccc(cc2)C(F)(F)F)c3cn(C)nc3C]: the viability at 10 µM turned out to be 104%.

In the case of `COc1cccc(CC(=O)N2CCC(n3c(C)nc4ccc(F)cc43)CC2)c1` [MMV020081, COc1cccc(CC(=O)N2CCC(CC2)n3c(C)nc4ccc(F)cc34)c1], the viability at 10 µM was 99%.

`CC1CC1C(=O)NC1CCN(CC2(c3ccccc3)CCCCC2)CC1` (stereo not shown) [MMV020120, CC1CC1C(=O)NC2CCN(CC3(CCCCC3)c4ccccc4)CC2]: the viability at 10 µM is 109%.

As to `CNC(=O)c1cc(S(=O)(=O)N2CCN(c3ccccn3)CC2)cs1` [MMV020136, CNC(=O)c1cc(cs1)S(=O)(=O)N2CCN(CC2)c3ccccn3], the viability at 10 µM turned out to be 97%.

On to `Cc1cc(C(=O)Nc2ccc(-c3ccccc3)cc2)no1` [MMV020152, Cc1onc(c1)C(=O)Nc2ccc(cc2)c3ccccc3], for which the viability at 10 µM is 85%.

For `CC(C)NCC(=O)Nc1cccc(C(=O)Nc2cccc(C(F)(F)F)c2)c1` [MMV020165, CC(C)NCC(=O)Nc1cccc(c1)C(=O)Nc2cccc(c2)C(F)(F)F], the viability at 10 µM turned out to be 107%.

For `Cc1ccc(NC(=O)c2cc(S(=O)(=O)NC(C)(C)C)ccc2C)nc1` [MMV020289, Cc1ccc(NC(=O)c2cc(ccc2C)S(=O)(=O)NC(C)(C)C)nc1], the viability at 10 µM turned out to be 93%.

Regarding `CC(C(=O)N1CCCC1)N1CCN(S(=O)(=O)c2ccc(C(C)(C)C)cc2)CC1` (stereo not shown) [MMV020291, CC(N1CCN(CC1)S(=O)(=O)c2ccc(cc2)C(C)(C)C)C(=O)N3CCCC3], the viability at 10 µM is 95%.
